Measured values: US12473250B2, “Molecular design of new antibiotics and antibiotic adjuvants against MCR strains” (priority 2019, dated 2025)
Where two headings read alike, the source gives them in different places.

Legend:
Format in all cases: cell-based
[1] = tested on: colistin resistant MCR (+) E. Coli strains; experiment: Synergy study: colistin MIC in the presence of compound
Protocol: (§1) The MICs of the individual drugs and LC compound in combinations were determined using the broth microdilution technique as recommended by the CLSI whereby the two anti-microbial agents were added in an equal amount. (e.g.: 50 μL of Colistin: 50 μL of LC compounds). Diluted media containing compounds and antibiotics will be serially diluted 2-fold, and LC compounds and antibiotics alone or in combination will be assayed at fixed synergy concentration. In all cases, the lowest concentration at which no visible growth occurred was be recorded to be the MIC value of individual and combined antibacterial agents. The results were obtained after 24 hours of incubation.

[2] = tested on: colistin resistant MCR (−) E. Coli strains; experiment: as above
Protocol: as §1

[3] = tested on: colistin resistant MCR (−) E. Cloacae strain 7023456439; experiment: as above; conditions: strain 7023456439 E. Cloacae
Protocol: as §1

[4] = tested on: colistin resistant MCR (+) E. Coli strains; experiment: MIC, broth microdilution, compound alone; conditions: compound alone
Protocol: (§2) MIC experiments of the antimicrobial agents were determined by a modified broth microdilution method in accordance with the Clinical and Laboratory Standards Institute (CLSI) guidelines using 96 well culture plates. In brief, serial dilutions of all plates were prepared at different concentrations (μg). The inoculum suspension was prepared by adding isolated colonies from a 18-20 hours on TSA plate into phosphate buffer (0.31 mM, pH 7.2) or in water for injection (BBraun) and adjusting the suspension to a turbidity equivalent to 0.5 McFarland Standard. Each well contained a final bacterial concentration of approximately 5×10^5 colony forming units (CFU)/mL. The plate was covered and incubated at 35° C. for 24 hours. […] For the microdilution plates, turbidity in wells can be measured at OD600 using TECAN infinite M200Pro. MIC was determined as […] concentration that gives a 99 percent inhibition.

[5] = tested on: colistin resistant MCR (−) E. Coli strains; experiment: MIC, broth microdilution, compound alone
Protocol: as §2

[6] = tested on: colistin resistant MCR (−) E. Cloacae strain 7023456439; experiment: MIC, broth microdilution, compound alone; conditions: strain 7023456439 E. Cloacae
Protocol: as §2

[7] = strain 6075066346, MCR(+), compound at 10 μg (Table 2a: 10 ug/ml)
[8] = strain 6083655967, MCR(+), compound at 10 μg (Table 2a: 10 ug/ml)
[9] = strain 6103645107, MCR(+), compound at 10 μg (Table 2a: 10 ug/ml)
[10] = strain 6123520276, MCR(+), compound at 10 μg (Table 2a: 10 ug/ml)
[11] = strain 7013177695, MCR(+), compound at 10 μg (Table 2a: 10 ug/ml)
[12] = strain 7023436560, MCR(+), compound at 10 μg (Table 2a: 10 ug/ml)
[13] = strain 7023444207, MCR(+), compound at 10 μg (Table 2a: 10 ug/ml)
[14] = strain 6083672926, MCR(−), compound at 10 μg (Table 2a: 10 ug/ml)
[15] = strain 7023446108, MCR(−), compound at 10 μg (Table 2a: 10 ug/ml)
[16] = strain 7033607097, MCR(−), compound at 10 μg (Table 2a: 10 ug/ml)
[17] = compound at 10 μg (Table 2a: 10 ug/ml)

| Compound | MIC ([4]; strain 6083655967, MCR (+)) | MIC ([4]; strain 6103645107, MCR (+)) | MIC ([4]; strain 6123520276, MCR (+)) | MIC ([4]; strain 7013177695, MCR (+)) | MIC ([4]; strain 7023436560, MCR (+)) | MIC ([4]; strain 7023444207, MCR (+)) | MIC ([5]; strain 6083672926, MCR (−)) | MIC ([5]; strain 7033607097, MCR (−)) | Colistin MIC in the presence of the compound [2, 14] | Colistin MIC in the presence of the compound [2, 15] | Colistin MIC in the presence of the compound [2, 16] | Colistin MIC in the presence of the compound [3, 17] | MIC ([4]; strain 6075066346, MCR (+)) | MIC ([5]; strain 7023446108, MCR (−)) | MIC [6] | further results |
| --- | --- | --- | --- | --- | --- | --- | --- | --- | --- | --- | --- | --- | --- | --- | --- | --- |
| O=C(O)CN(CCN(CC(=O)O)CC(=O)O)CC(=O)O [EDTA, Ethylenediaminetetraacetic acid, reference compound] | >250 µg/mL | >250 µg/mL | >250 µg/mL | >250 µg/mL | >250 µg/mL | >250 µg/mL | >250 µg/mL | >250 µg/mL |  |  |  |  |  |  |  | concentration at which the compound shows synergy with colistin ([1]; against mcr-1 bacteria): higher than 250 μg/ml; Colistin MIC in the presence of the compound ([1]; strain 6083655967, MCR(+), compound at 250 ug/ml): 0.78 µg/mL; Colistin MIC in the presence of the compound ([1]; strain 6103645107, MCR(+), compound at 250 ug/ml): 0.39 µg/mL; Colistin MIC in the presence of the compound ([1]; strain 6123520276, MCR(+), compound at 250 ug/ml): 0.78 µg/mL; Colistin MIC in the presence of the compound ([1]; strain 7013177695, MCR(+), compound at 250 ug/ml): 0.78 µg/mL; Colistin MIC in the presence of the compound ([1]; strain 7023436560, MCR(+), compound at 250 ug/ml): 0.39 µg/mL; Colistin MIC in the presence of the compound ([2]; strain 6083672926, MCR(−), compound at 250 ug/ml): 0.78 µg/mL; Colistin MIC in the presence of the compound ([2]; strain 7023446108, MCR(−), compound at 250 ug/ml): 0.39 µg/mL; Colistin MIC in the presence of the compound ([2]; strain 7033607097, MCR(−), compound at 250 ug/ml): 0.195 µg/mL; Colistin MIC in the presence of the compound ([3]; compound at 250 ug/ml): 3.125 µg/mL; MIC ([4]; Escherichia coli, strain 6075066346, MCR (+), read-out: MIC): > 250 µg/mL; MIC ([5]; Escherichia coli, strain 7023446108, MCR (−), read-out: MIC): > 250 µg/mL; MIC ([6]; Enterobacter cloacae, read-out: MIC): > 250 µg/mL |
| Cc1cc(OCCCCC[N+](C)(C)C)cc(OCCCCC[N+](C)(C)C)c1 [LC310] | >50 µg/mL | >50 µg/mL | >50 µg/mL | >50 µg/mL | >50 µg/mL |  | >50 µg/mL | >50 µg/mL | 6.25 µg/mL | 6.25 µg/mL | 6.25 µg/mL | 6.25 µg/mL | >50 µg/mL | >50 µg/mL | >50 µg/mL | Colistin MIC in the presence of the compound [1, 7]: 6.25 µg/mL; Colistin MIC in the presence of the compound [1, 8]: 6.25 µg/mL; Colistin MIC in the presence of the compound [1, 9]: 6.25 µg/mL; Colistin MIC in the presence of the compound [1, 10]: 6.25 µg/mL; Colistin MIC in the presence of the compound [1, 11]: 6.25 µg/mL; Colistin MIC in the presence of the compound [1, 12]: 6.25 µg/mL; Colistin MIC in the presence of the compound [1, 13]: 6.25 µg/mL; MIC ([4]; strain 7028444207 (Table 1b), MCR (+)): >50 µg/mL |
| CC(C)=CCc1c(OCCCC[n+]2ccn(C)c2)ccc(C(=O)/C=C/c2ccc(OCCCC[n+]3ccn(C)c3)cc2)c1O [LC350] | 3.125 µg/mL | 3.125 µg/mL | 3.125 µg/mL | 3.125 µg/mL | 3.125 µg/mL | 3.125 µg/mL | 3.125 µg/mL | 3.125 µg/mL |  |  |  |  | 3.125 µg/mL | 3.125 µg/mL | >50 µg/mL | Colistin MIC in the presence of the compound ([1]; strain 6075066346, MCR(+), compound at 2 μg): 0.195 µg/mL; Colistin MIC in the presence of the compound ([1]; strain 6083655967, MCR(+), compound at 2 μg): 0.195 µg/mL; Colistin MIC in the presence of the compound ([1]; strain 6103645107, MCR(+), compound at 2 μg): 0.195 µg/mL; Colistin MIC in the presence of the compound ([1]; strain 6123520276, MCR(+), compound at 2 μg): 0.195 µg/mL; Colistin MIC in the presence of the compound ([1]; strain 7013177695, MCR(+), compound at 2 μg): 0.195 µg/mL; Colistin MIC in the presence of the compound ([1]; strain 7023436560, MCR(+), compound at 2 μg): 0.195 µg/mL; Colistin MIC in the presence of the compound ([1]; strain 7023444207, MCR(+), compound at 2 μg): 0.195 µg/mL; Colistin MIC in the presence of the compound ([2]; strain 6083672926, MCR(−), compound at 2 μg): 0.195 µg/mL; Colistin MIC in the presence of the compound ([2]; strain 7023446108, MCR(−), compound at 2 μg): 0.195 µg/mL; Colistin MIC in the presence of the compound ([2]; strain 7033607097, MCR(−), compound at 2 μg): 0.195 µg/mL; Colistin MIC in the presence of the compound ([3]; compound at 2 μg): >12.5 µg/mL |
| CC1(C)C=Cc2c(ccc3c2OCC(c2ccc(OCCCC[n+]4ccccc4)cc2OCCCC[n+]2ccccc2)C3)O1 (stereo not drawn) [LC370] | 50 µg/mL | 50 µg/mL | 50 µg/mL | 50 µg/mL | 50 µg/mL | 50 µg/mL | 25 µg/mL | 25 µg/mL | >12.5 µg/mL | 0.195 µg/mL | 0.195 µg/mL | >12.5 µg/mL | 50 µg/mL | 25 µg/mL | >50 µg/mL | Colistin MIC in the presence of the compound [1, 7]: 0.195 µg/mL; Colistin MIC in the presence of the compound [1, 8]: 0.39 µg/mL; Colistin MIC in the presence of the compound [1, 9]: 0.195 µg/mL; Colistin MIC in the presence of the compound [1, 10]: 0.195 µg/mL; Colistin MIC in the presence of the compound [1, 11]: 0.195 µg/mL; Colistin MIC in the presence of the compound [1, 12]: 0.195 µg/mL; Colistin MIC in the presence of the compound [1, 13]: 0.195 µg/mL |
| CC[N+](CC)(CC)CCCCOc1ccc(/C=C/C(=O)c2ccc(OCCCC[N+](CC)(CC)CC)c(CC=C(C)C)c2O)cc1 [LC315] | 6.25 µg/mL | 6.25 µg/mL | 12.5 µg/mL | 12.5 µg/mL | 6.25 µg/mL | 12.5 µg/mL | 25 µg/mL | 12.5 µg/mL |  |  |  |  | 6.25 µg/mL | 12.5 µg/mL | >50 µg/mL | Colistin MIC in the presence of the compound ([2]; strain 6083672926, MCR(−), compound at 5 μg (Table 2a: 5 ug/ml)): <0.0975 µg/mL; Colistin MIC in the presence of the compound ([2]; strain 7023446108, MCR(−), compound at 5 μg (Table 2a: 5 ug/ml)): <0.0975 µg/mL; Colistin MIC in the presence of the compound ([2]; strain 7033607097, MCR(−), compound at 5 μg (Table 2a: 5 ug/ml)): <0.0975 µg/mL; Colistin MIC in the presence of the compound ([3]; compound at 5 μg (Table 2a: 5 ug/ml)): >12.5 µg/mL |
| CC1(C)C=Cc2c(ccc3c2OCC(c2ccc(OCC(=O)NC(CCCNC(=N)N)C(N)=O)cc2OCC(=O)NC(CCCNC(=N)N)C(N)=O)C3)O1 (stereo not drawn) [LC127] | >50 µg/mL | >50 µg/mL | >50 µg/mL | >50 µg/mL | >50 µg/mL | >50 µg/mL | >50 µg/mL | >50 µg/mL | 12.5 µg/mL | 6.25 µg/mL | 6.25 µg/mL | >12.5 µg/mL | >50 µg/mL | >50 µg/mL | >50 µg/mL |  |
| CC[N+](CC)(CC)CCCCOc1ccc(C2COc3c(ccc4c3C=CC(C)(C)O4)C2)c(OCCCC[N+](CC)(CC)CC)c1 (stereo not drawn) [LC317] | 50 µg/mL | 50 µg/mL | >50 µg/mL | 50 µg/mL | 50 µg/mL | 50 µg/mL | >50 µg/mL | >50 µg/mL | 1.56 µg/mL | 1.56 µg/mL | 1.56 µg/mL | >12.5 µg/mL | 50 µg/mL | 50 µg/mL | >50 µg/mL |  |
